According to ChEMBL document CHEMBL1201862, “PubChem BioAssay data set” (2004):
The source made the active and inactive calls.

What was measured:
[1] = biological target: T1, Sentrin-specific protease 8 (Homo sapiens, UniProt Q96LD8); assay type: functional;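 also: luminescence read-out of SENP8 inhibition, dose-response confirmation following an ultra-high-throughput screen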
T1 sequence (Q96LD8 whole entry): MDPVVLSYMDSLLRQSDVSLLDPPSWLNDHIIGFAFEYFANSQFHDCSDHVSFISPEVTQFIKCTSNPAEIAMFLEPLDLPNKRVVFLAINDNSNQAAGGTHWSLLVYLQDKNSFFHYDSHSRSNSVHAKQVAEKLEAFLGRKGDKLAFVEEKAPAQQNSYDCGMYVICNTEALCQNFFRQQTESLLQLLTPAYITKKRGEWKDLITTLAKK

[2] = biological target: T2, Sentrin-specific protease 7 (Homo sapiens, UniProt Q9BQF6); assay type: functional;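 also: Luminescence-based dose-response confirmation of ultra-high-throughput screening hits, measuring inhibition of SENP7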
T2 sequence (Q9BQF6 whole entry): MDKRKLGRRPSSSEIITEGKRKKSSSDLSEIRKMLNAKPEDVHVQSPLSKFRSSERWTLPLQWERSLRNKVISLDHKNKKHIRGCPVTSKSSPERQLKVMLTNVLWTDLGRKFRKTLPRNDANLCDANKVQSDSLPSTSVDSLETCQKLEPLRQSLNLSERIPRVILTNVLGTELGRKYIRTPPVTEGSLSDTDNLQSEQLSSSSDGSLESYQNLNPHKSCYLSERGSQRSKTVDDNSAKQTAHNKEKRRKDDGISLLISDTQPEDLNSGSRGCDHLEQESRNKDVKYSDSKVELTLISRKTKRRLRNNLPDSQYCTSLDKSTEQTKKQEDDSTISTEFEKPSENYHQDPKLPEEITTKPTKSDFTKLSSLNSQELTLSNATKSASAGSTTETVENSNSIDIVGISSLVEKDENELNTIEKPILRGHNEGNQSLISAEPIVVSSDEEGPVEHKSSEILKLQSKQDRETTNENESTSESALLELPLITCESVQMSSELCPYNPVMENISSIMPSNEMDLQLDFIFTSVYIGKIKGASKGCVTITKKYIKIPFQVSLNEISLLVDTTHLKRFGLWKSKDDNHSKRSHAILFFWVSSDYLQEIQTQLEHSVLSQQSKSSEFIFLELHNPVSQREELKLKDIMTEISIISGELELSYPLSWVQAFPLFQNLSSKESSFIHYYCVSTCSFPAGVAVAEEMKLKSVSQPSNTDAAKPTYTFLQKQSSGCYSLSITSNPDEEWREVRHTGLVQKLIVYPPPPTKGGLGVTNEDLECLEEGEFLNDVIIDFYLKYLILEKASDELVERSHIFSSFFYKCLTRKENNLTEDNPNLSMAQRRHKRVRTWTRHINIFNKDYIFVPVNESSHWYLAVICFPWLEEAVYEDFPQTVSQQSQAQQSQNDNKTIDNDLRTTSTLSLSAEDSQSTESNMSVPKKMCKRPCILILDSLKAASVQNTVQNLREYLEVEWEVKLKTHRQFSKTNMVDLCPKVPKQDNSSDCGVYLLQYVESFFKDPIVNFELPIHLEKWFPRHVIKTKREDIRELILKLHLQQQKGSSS

Caspase-3 = biological target: T3, Caspase-3 (Homo sapiens, UniProt P42574); assay type: functional;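 also: Dose-response selectivity test against caspase-3 for candidate inhibitors of sentrin-specific proteases (SENPs)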
T3 sequence (P42574 whole entry): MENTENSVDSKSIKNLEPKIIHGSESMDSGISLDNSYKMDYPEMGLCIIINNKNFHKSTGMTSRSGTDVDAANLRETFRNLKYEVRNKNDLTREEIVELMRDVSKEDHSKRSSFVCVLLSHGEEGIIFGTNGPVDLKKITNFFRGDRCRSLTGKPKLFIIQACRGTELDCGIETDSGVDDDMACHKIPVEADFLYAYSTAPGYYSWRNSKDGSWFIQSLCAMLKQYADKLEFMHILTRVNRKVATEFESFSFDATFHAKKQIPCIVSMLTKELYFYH

[3] = biological target: T4, Sentrin-specific protease 6 (Homo sapiens, UniProt Q9GZR1); assay type: functional;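 also: Luminescence-based dose-response confirmatory assay of SENP6 inhibition, following up an ultra-high-throughput screen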
T4 sequence (Q9GZR1 whole entry): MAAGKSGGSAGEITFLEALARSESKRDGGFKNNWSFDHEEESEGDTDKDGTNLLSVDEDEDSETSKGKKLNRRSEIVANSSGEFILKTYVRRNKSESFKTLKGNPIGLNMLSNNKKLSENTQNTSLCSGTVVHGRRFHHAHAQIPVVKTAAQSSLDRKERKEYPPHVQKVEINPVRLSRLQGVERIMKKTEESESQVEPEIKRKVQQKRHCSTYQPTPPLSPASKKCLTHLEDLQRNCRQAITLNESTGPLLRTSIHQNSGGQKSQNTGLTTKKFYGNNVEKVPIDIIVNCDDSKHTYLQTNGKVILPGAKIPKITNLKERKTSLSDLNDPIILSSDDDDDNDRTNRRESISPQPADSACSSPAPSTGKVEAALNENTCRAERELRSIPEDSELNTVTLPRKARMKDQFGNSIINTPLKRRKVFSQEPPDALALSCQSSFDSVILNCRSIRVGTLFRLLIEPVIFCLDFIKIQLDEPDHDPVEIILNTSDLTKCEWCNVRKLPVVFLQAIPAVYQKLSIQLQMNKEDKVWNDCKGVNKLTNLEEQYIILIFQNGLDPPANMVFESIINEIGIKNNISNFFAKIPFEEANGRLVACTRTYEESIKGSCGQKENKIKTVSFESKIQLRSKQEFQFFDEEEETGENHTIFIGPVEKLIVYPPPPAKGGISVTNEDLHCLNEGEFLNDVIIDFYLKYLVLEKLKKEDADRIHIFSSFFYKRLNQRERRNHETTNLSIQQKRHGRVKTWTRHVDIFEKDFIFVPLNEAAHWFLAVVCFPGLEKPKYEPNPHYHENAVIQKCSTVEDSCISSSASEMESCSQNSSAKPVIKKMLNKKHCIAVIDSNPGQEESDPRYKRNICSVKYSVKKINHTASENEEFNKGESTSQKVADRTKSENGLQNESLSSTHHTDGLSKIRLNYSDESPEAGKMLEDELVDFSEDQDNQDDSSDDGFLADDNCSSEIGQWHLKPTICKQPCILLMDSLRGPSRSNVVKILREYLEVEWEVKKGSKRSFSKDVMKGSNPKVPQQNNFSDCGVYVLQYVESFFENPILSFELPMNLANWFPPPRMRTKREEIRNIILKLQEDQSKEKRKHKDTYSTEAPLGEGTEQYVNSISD

[4] = loss of viability in HepG2 cells – cell-based, CellTiter-Glo, cherry-picked, cytotoxicity control for Shn3 inhibitor project, dose response (AID 624134); assay type: functional
[5] = reduction of Shn3 3'UTR-driven luciferase in osteoblasts – cell-based, Clone20 osteoblasts, firefly luciferase, cherry-picked, dose response (AID 624132); assay type: functional;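 also: firefly luciferase luminescence from reporter carrying the Shn3 3'UTR in osteoblasts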
[6] = non-specific 3'UTR reporter inhibition in Clone20-Shn3RL – cell-based, Renilla luciferase, cherry-picked, counter-screen for Shn3 inhibitor project, dose response (AID 624133); assay type: functional
Streptokinase A = biological target: T5, Streptokinase A (Streptococcus pyogenes serotype M1, UniProt P10520); assay: viability-normalized secreted streptokinase activity reduction – plasminogen activation absorbance, OD405, dose response (AID 1914); assay type: functional, Streptococcus pyogenes M1 GAS;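 also: secreted streptokinase activity via plasminogen activation per viability signal from cell pellet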
T5 sequence (P10520 whole entry): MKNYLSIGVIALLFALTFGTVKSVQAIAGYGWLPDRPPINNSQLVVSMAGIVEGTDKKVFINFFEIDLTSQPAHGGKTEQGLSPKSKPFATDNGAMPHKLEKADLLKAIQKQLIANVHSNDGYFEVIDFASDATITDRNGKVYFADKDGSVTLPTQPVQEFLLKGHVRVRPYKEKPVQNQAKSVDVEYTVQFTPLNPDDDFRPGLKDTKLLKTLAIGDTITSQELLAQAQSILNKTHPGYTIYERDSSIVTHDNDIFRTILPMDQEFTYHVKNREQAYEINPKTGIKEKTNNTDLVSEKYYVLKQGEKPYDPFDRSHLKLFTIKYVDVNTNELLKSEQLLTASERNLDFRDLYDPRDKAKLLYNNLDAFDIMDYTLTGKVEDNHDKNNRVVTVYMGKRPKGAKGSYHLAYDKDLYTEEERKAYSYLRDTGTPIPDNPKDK

[7] = system: Streptococcus sp. 'group A'; assay: Streptococcus pyogenes SK(-)GAS viability under kanamycin – luminescence, BacTiterGlo, confirmation, counter-screen for streptokinase expression inhibitor project, dose response (AID 1900); assay type: functional, organism-based
Streptococcus = assay: GAS UMAA2166 growth inhibition – luminescence, BacTiterGlo, counter-screen for streptokinase expression inhibitor project, dose response (AID 1915); assay type: functional, organism-based;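 also: potency for reduction of bacterial viability or growth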
[8] = luciferase reporter signal suppression in cells – H4 neuroglioma cells, luminescence, dose response (AID 1990); assay type: functional, cell-based
[9] = Luminescence Cell-Based Dose Response HTS to Identify Inhibitors of 5'UTR Stem-Loop Driven Prion Protein mRNA Translation in H4 Neuroglioblastoma Cells. [Related pubchem assays: 1827 (Project Summary), 1813 (Primary HTS)]; assay type: functional
BJ [10] = assay: growth inhibition of engineered Ras-driven BJ cells – cell-based, alamar blue fluorescence, cherrypicked samples, dose response (AID 2631); assay type: functional; conditions: Homo sapiens;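 also: confirmatory dose-response assay in RAS-dependent BJ fibroblasts engineered with TERT, LT and ST, with cytotoxicity read by fluorescence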
BJ [11] = assay: BJ-TERT fibroblast viability loss – cell-based, RAS-independent, luminescence, dose response (AID 1933); assay type: functional; conditions: Homo sapiens
BJ [12] = assay: cells; assay type: functional, cell-based; conditions: Homo sapiens
BJ [13] = assay: BJ-TERT-LT-ST fibroblast viability loss – cell-based, RAS-independent, luminescence, dose response (AID 1935); assay type: functional; conditions: Homo sapiens;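 also: BJ fibroblasts immortalized with TERT plus LT and ST oncogenes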
[14] = DRD fibroblast viability loss – cell-based, non-viral oncogenic, luminescence, dose response (AID 1934); assay type: functional; conditions: Homo sapiens
[15] = alpha-synuclein stem-loop luciferase translation blockers – H4 neuroglioma cells, luminescence, confirmation (AID 1988); assay type: functional, cell-based
[16] = HIV-1 AD8 envelope cell-cell fusion blockers – cherry-pick, dose response (AID 652062); assay type: functional, cell-based;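 also: luciferase signal from cell-cell fusion driven by HIV-1 clade B AD8 Env; potency is for inhibitors of fusion seen as a drop in luminescence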
[17] = blockers of bursicon-stimulated LGR2 cAMP reporter – cell-based, HEK293, CRE-luciferase reporter, cherry pick, set 2, dose response (AID 743343); assay type: functional;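 also: transfected cells were stimulated with diluted bursicon conditioned medium after compound addition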
[18] = viability loss in HEK293 cells – cell-based, plate reader, cherry-picked samples, cytotoxicity control, dose response (AID 743446); assay type: functional
[19] = blockade of melanocortin 4 receptor signaling – cell-based, plate reader, cherry pick, counter-screen for LGR2 antagonist project, dose response (AID 743444); assay type: functional;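 also: transfected HEK 293 cells stimulated with alpha-MSH peptide; potency of inhibitors of the alpha-MSH evoked signal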
[20] = toxicity toward HepG2 liver cells – cell-based, plate reader, cherry-pick, antagonist series, cytotoxicity control, dose response (AID 743416); assay type: functional
[21] = A549 cell cytotoxicity, dose response, cytotoxicity control, plate reader, cherry-pick, antagonist series (AID 743412); assay type: functional, cell-based

| Compound | IC50 [1] | IC50 [2] | IC50 (Caspase-3) | IC50 [3] | AC50 [4] | AC50 [5] | AC50 [6] | also measured |
| --- | --- | --- | --- | --- | --- | --- | --- | --- |
| N#Cc1ccsc1NC(=O)CSc1nnnn1-c1ccc(O)cc1 | 36.8 µM (active) | 10.3 µM (active) | 20.6 µM (active) | 30.5 µM (active) |  |  |  |  |
| COc1ccc(NC(=O)CSc2ncccc2C(=O)OC(C)C)cc1OC |  |  |  |  | 41.9 µM (active) | 4.1 µM (active) | 1.54 µM (active) |  |
| COc1ccc(-c2nc(NC(=O)C3CC(=O)N(c4ccc5c(c4)OCCO5)C3)sc2C)cc1 (stereo not given) |  |  |  |  | 47.3 µM (active) | 5.24 µM (active) | 13.4 µM (active) | EC50 (Streptokinase A): > 150 µM (not active); EC50 [7]: 21.7 µM (active); EC50 (Streptococcus): 63.6 µM (active) |
| CCOc1ccc(CC(=O)Nc2ccc(NC(=O)c3ccco3)cc2)cc1OCC |  |  |  |  |  |  |  | EC50 [8]: 11 µM (active); EC50 [9]: 6.05 µM (active); EC50 (BJ [10]): > 66.7 µM (inactive); EC50 (BJ [11]): > 150 µM (not active); EC50 (BJ [12]): 2.55 µM (active); EC50 (BJ [13]): 9.89 µM (inconclusive); EC50 [14]: > 150 µM (not active); EC50 [15]: 8.44 µM (active) |
| CCN(C(=O)C1CCN(c2nc(-c3ccc(OC)cc3)no2)CC1)c1ccc(OC)cc1 |  |  |  |  | 62.5 µM (active) | 3.17 µM (active) | 11.8 µM (active) |  |
| Cc1cccc(-n2ncc3c(N4CCC(C)CC4)ncnc32)c1 | 27.9 µM (active) | 7.97 µM (active) | 19.5 µM (active) | 21.9 µM (active) |  |  |  |  |
| CC(=O)c1ccccc1OCCOCCOCCOc1ccccc1C(C)=O |  |  |  |  |  |  |  | EC50 [8]: > 120 µM (not active); EC50 (BJ [10]): > 133 µM (inactive); EC50 (BJ [11]): 27 µM (active); EC50 (BJ [12]): > 150 µM (not active); EC50 (BJ [13]): > 150 µM (inconclusive); EC50 [14]: > 150 µM (not active); EC50 [15]: > 120 µM (not active) |
| O=C(CSc1ccccn1)NCc1ccc2c(c1)OCO2 |  |  |  |  |  |  |  | EC50 (BJ [10]): > 133 µM (inactive) |
| CC1CN(S(=O)(=O)c2cc(C(=O)NCCC3=CCCCC3)ccc2Cl)CC(C)O1 (stereo not given) |  |  |  |  |  |  |  | AC50 [16]: 7.96 µM (active) |
| Oc1nc2ccccc2n1C1CCN(C(c2cccs2)c2nnnn2Cc2ccccc2)CC1 (stereo not given) |  |  |  |  | > 70 µM (inactive) | 2.98 µM (active) | 6.11 µM (active) | AC50 [17]: 2.74 µM (active); AC50 [18]: 29.8 µM (active); AC50 [19]: 1.76 µM (active); AC50 [20]: 44.4 µM (active); AC50 [21]: 13.7 µM (active) |
| C/C(=N\Nc1ccc([N+](=O)[O-])cc1)c1ccco1 | 73.8 µM (active) | 6.51 µM (active) | 18.4 µM (active) | 10.6 µM (active) |  |  |  |  |
| C/C(=N\OC(=O)c1ccc(Br)cc1)c1ccccn1 | 2.43 µM (active) | 1.01 µM (active) | 1.26 µM (active) | 1.31 µM (active) |  |  |  |  |
| COc1cccc(C(=O)Oc2ccc(/C=N/Nc3ccc(C(=O)O)cc3)cc2OC)c1 | 17.1 µM (active) | 12.3 µM (active) | 74.2 µM (active) | 14.3 µM (active) |  |  |  | EC50 (Streptokinase A): > 150 µM (not active); EC50 [7]: 5 µM (active); EC50 (Streptococcus): 19 µM (active) |
